Data: ChEMBL document CHEMBL4334438, “Discovery of novel glycogen synthase kinase-3α inhibitors: Structure-based virtual screening, preliminary SAR and biological evaluation for treatment of acute myeloid leukemia” (Eur J Med Chem, 2019)

Legend:
[1] = target: Tyrosine-protein kinase Lck (Homo sapiens) (UniProt P06239); assay: Inhibition of recombinant full length human LCK activated assessed as residual activity at 1 uM using KVEKIGEGTYGVVYK as substrate after 40 mins in presence of [gamma-33ATP] by scintillation counting based radiometry assay relative to control
[2] = target: Serine/threonine-protein kinase NLK (Homo sapiens) (UniProt Q9UBE8); assay: Inhibition of recombinant human NLK (121 to end residues) assessed as residual activity at 1 uM using myelin basic protein as substrate measured after 40 mins in presence of [gamma33P]ATP by scintillation counting method relative to control
[3] = target: Dual specificity mitogen-activated protein kinase kinase 3 (Homo sapiens) (UniProt P46734); assay: Inhibition of recombinant human MKK3 assessed as residual activity at 1 uM by scintillation counting based radiometry assay relative to control
[4] = target: Mitogen-activated protein kinase 11 (Homo sapiens) (UniProt Q15759); assay: Inhibition of recombinant human full length SAPK2b assessed as residual activity at 1 uM using myelin basic protein as substrate measured after 40 mins in presence of [gamma33P]ATP by scintillation counting method relative to control
[5] = target: Serine/threonine-protein kinase VRK2 (Homo sapiens) (UniProt Q86Y07); assay: Inhibition of human VRK2 (1 to 336 residues) assessed as residual activity at 1 uM using casein as substrate measured after 40 mins in presence of [gamma33P]ATP by scintillation counting method relative to control
[6] = target: Myotonin-protein kinase (Homo sapiens) (UniProt Q09013); assay: Inhibition of recombinant human DMPK (1 to 549 residues) assessed as residual activity at 1 uM using KKSRGDYMTMQIG as substrate at 40 mins in presence of [gamma-33ATP] by scintillation counting based radiometry assay relative to control
[7] = target: Calcium/calmodulin-dependent protein kinase type 1G (Homo sapiens) (UniProt Q96NX5); assay: Inhibition of recombinant full length human CaMKIgamma assessed as residual activity at 1 uM using KKLRRTLSFAEPG as substrate incubated for 40 mins in presence of [gamma-33ATP] by scintillation counting based radiometry assay relative to control
[8] = system: Tyrosine-protein kinase receptor UFO (Homo sapiens), P30530 [Q764R]; assay: Inhibition of recombinant human Axl Q764R mutant (473 to end residues) assessed as residual activity at 1 uM using KKSRGDYMTMQIG as substrate incubated for 40 mins in presence of [gamma-33ATP] by scintillation counting based radiometry assay relative to control
[9] = target: Testis-specific serine/threonine-protein kinase 2 (Homo sapiens) (UniProt Q96PF2); assay: Inhibition of recombinant full-length human TSSK2 at 1 uM assessed as residual activity at 1 uM using KKKVSRSGLYRSPSMPENLNRPR as substrate measured after 40 mins in presence of [gamma33P]ATP by scintillation counting method relative to control
[10] = target: Protein kinase C gamma type (Homo sapiens) (UniProt P05129); assay: Inhibition of recombinant full-length human PKCgamma assessed as residual activity at 1 uM using histone H1 as substrate measured after 40 mins in presence of [gamma33P]ATP by scintillation counting method relative to control
Homo sapiens = species: Homo sapiens; assay: Inhibition of recombinant human EphB2 A848S/K918E mutant (560 to end residues) assessed as residual activity at 1 uM using poly(Glu, Tyr) 4:1 as substrate at 40 mins in presence of [gamma-33ATP] by scintillation counting based radiometry assay relative to control
[11] = target: Ephrin type-A receptor 5 (Homo sapiens) (UniProt P54756); assay: Inhibition of recombinant human EphA5 (655to 956 residues) assessed as residual activity at 1 uM using poly(Glu, Tyr) 4:1 as substrate at 40 mins in presence of [gamma-33ATP] by scintillation counting based radiometry assay relative to control
[12] = target: Hepatocyte growth factor receptor (Homo sapiens) (UniProt P08581); assay: Inhibition of recombinant human MET A1209G/V1290L mutant (974 to end residues) assessed as residual activity at 1 uM using KKKGQEEEYVFIE as substrate incubated for 40 mins in presence of [gamma-33ATP by scintillation counting based radiometry assay relative to control
[13] = target: Tyrosine-protein kinase SYK (Homo sapiens) (UniProt P43405); assay: Inhibition of recombinant full-length human Syk at 1 uM assessed as residual activity at 1 uM using poly(Glu, Tyr) 4:1 as substrate measured after 120 mins in presence of [gamma33P]ATP by scintillation counting method relative to control
[14] = target: Myosin-IIIb (Homo sapiens) (UniProt Q8WXR4); assay: Inhibition of recombinant human MYO3B (1 to 306 residues) assessed as residual activity at 1 uM using RLGRDKYKTLRQIRQ as substrate measured after 40 mins in presence of [gamma33P]ATP by scintillation counting method relative to control
[15] = system: Mast/stem cell growth factor receptor Kit (Homo sapiens), P10721 [D816H]; assay: Inhibition of recombinant human C-Kit D816H mutant (544 to end residues) assessed as residual activity at 1 uM poly(Glu, Tyr) 4:1 as substrate incubated 40 mins in presence of [gamma-33ATP] by scintillation counting based radiometry assay relative to control
[16] = target: Serine/threonine-protein kinase Nek2 (Homo sapiens) (UniProt P51955); assay: Inhibition of recombinant full-length human NEK2 assessed as residual activity at 1 uM using myelin basic protein as substrate measured after 40 mins in presence of [gamma33P]ATP by scintillation counting based radiometry assay relative to control
[17] = system: Mitogen-activated protein kinase kinase kinase 10 (MLK2); assay: Inhibition of recombinant human MLK2 (1 to 499 residues) assessed as residual activity at 1 uM using myelin basic protein as substrate incubated for 40 mins in presence of [gamma-33ATP by scintillation counting based radiometry assay relative to control
[18] = system: RAF proto-oncogene serine/threonine-protein kinase (Homo sapiens), P04049 [Y340D,Y341D]; assay: Inhibition of recombinant human C-Raf Y340D/Y341D double mutant (306 to end residues) assessed as residual activity at 1 uM poly(Glu, Tyr) 4:1 as substrate incubated 40 mins in presence of [gamma-33ATP] by scintillation counting based radiometry assay relative to control
[19] = system: Epidermal growth factor receptor (Homo sapiens), P00533 [L858R,T790M]; assay: Inhibition of recombinant human EGFR T790M/L858R mutant (696 to end residues) assessed as residual activity at 1 uM using poly(Glu, Tyr) 4:1 as substrate at 40 mins in presence of [gamma-33ATP] by scintillation counting based radiometry assay relative to control
[20] = system: Mast/stem cell growth factor receptor Kit (Homo sapiens), P10721 [D816V]; assay: Inhibition of recombinant human C-Kit D816V mutant (544 to end residues) assessed as residual activity at 1 uM poly(Glu, Tyr) 4:1 as substrate incubated 40 mins in presence of [gamma-33ATP] by scintillation counting based radiometry assay relative to control
Chain of Mast/stem cell growth factor receptor Kit (Homo sapiens), P10721 [D816V] (P10721 whole entry D816V): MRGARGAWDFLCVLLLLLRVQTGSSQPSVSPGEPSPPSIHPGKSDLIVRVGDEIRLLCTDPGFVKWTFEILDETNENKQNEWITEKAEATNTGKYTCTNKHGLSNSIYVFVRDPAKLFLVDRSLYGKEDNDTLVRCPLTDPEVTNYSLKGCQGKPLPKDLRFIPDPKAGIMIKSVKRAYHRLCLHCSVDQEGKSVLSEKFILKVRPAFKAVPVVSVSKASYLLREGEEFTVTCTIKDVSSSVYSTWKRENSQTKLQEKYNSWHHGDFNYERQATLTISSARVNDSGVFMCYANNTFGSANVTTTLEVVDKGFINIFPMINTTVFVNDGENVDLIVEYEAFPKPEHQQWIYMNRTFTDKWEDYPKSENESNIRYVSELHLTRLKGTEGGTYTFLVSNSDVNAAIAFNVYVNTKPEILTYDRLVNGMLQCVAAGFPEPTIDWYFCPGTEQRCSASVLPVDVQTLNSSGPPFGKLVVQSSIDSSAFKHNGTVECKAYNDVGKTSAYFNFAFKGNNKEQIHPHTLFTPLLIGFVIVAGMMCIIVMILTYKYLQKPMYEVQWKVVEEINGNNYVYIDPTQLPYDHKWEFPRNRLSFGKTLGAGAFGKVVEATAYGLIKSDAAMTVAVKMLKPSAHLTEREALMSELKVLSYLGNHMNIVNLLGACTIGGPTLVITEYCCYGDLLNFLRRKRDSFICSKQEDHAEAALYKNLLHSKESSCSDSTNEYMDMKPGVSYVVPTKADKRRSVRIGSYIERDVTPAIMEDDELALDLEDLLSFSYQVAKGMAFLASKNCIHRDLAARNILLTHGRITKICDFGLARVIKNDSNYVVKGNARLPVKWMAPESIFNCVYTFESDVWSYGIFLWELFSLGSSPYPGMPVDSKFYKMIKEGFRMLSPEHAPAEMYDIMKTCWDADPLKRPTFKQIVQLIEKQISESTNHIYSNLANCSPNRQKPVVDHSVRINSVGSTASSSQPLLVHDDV

Chain of Calcium/calmodulin-dependent protein kinase type 1G (Homo sapiens) (Q96NX5 whole entry): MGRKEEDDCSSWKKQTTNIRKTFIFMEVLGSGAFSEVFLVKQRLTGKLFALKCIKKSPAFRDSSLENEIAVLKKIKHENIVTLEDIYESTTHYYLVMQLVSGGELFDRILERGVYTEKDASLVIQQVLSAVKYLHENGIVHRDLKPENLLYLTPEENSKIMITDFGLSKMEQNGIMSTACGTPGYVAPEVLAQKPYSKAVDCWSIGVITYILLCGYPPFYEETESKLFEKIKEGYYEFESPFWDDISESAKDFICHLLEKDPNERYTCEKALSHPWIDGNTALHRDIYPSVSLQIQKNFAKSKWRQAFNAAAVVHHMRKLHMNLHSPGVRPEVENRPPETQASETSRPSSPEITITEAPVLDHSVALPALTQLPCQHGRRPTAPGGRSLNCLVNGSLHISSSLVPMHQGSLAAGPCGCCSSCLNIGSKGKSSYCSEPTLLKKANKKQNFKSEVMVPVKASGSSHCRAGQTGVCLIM
Chain of Mast/stem cell growth factor receptor Kit (Homo sapiens), P10721 [D816H] (P10721 whole entry D816H): as the sequence (P10721 whole entry D816V) above, with V816H counted along it
Chain of Hepatocyte growth factor receptor (Homo sapiens) (P08581 whole entry): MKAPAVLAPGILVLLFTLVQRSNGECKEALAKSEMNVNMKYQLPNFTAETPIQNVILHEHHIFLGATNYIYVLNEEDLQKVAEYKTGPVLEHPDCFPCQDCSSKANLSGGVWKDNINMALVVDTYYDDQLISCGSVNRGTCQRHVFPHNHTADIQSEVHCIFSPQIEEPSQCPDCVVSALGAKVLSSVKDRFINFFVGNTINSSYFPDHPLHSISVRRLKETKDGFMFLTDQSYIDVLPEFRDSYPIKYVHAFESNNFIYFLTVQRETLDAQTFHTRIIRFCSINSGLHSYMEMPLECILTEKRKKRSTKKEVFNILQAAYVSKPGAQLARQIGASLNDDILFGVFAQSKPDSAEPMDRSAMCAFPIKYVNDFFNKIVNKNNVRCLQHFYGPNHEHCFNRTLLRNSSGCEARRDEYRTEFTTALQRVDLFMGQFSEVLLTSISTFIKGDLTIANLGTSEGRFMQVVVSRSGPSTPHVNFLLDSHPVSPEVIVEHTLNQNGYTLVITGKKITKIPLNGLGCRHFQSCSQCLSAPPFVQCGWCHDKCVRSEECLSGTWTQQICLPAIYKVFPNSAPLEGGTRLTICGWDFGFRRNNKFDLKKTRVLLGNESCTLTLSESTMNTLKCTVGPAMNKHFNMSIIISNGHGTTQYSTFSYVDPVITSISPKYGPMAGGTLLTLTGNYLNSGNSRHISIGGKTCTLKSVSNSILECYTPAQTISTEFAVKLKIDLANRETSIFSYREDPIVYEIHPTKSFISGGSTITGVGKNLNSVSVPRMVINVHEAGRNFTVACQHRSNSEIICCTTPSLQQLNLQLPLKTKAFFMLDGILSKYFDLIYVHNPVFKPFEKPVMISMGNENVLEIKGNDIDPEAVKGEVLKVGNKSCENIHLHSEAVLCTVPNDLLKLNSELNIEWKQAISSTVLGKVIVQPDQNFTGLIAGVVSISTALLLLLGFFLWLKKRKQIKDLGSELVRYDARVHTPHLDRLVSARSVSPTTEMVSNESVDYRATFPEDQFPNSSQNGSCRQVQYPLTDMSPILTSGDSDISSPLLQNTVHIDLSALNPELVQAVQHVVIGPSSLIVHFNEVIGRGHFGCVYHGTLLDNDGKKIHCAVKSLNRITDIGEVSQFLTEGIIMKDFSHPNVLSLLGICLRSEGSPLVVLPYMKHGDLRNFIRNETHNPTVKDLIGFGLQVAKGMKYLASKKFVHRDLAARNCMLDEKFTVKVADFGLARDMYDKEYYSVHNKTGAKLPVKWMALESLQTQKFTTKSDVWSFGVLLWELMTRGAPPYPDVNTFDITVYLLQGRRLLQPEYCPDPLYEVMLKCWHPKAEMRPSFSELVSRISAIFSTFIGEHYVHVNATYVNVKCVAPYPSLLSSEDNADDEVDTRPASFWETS
Chain of Serine/threonine-protein kinase VRK2 (Homo sapiens) (Q86Y07 whole entry, the tested form may be a part): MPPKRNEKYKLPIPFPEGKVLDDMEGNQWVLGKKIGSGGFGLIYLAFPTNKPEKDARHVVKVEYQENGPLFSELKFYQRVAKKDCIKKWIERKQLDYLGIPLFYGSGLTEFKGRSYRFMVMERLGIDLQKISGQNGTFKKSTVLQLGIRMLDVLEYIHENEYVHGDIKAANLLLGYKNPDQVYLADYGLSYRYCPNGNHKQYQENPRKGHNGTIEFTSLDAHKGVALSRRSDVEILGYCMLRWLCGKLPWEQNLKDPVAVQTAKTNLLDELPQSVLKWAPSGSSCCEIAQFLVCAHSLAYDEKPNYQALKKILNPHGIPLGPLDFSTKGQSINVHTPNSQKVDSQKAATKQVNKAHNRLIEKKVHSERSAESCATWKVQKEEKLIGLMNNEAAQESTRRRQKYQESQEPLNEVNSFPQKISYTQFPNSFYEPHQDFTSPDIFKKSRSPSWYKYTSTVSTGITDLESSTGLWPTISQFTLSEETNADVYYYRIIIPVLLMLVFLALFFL

SMILES	Activity [1]	Activity [2]	Activity [3]	Activity [4]	Activity [5]	Activity [6]	Activity [7]	Activity [8]	Activity [9]	Activity [10]	Activity (Homo sapiens)	Activity [11]	Activity [12]	Activity [13]	Activity [14]	Activity [15]	Activity [16]	Activity [17]	Activity [18]	Activity [19]	further results
C=CCOC(=O)c1cc(-c2ccc(/C=C3/NC(=S)NC3=O)o2)ccc1Cl	76%	64%	90%	100%	100%	76%	92%	101%	102%	104%	140%	100%	102%	82%	105%	97%	101%	103%	85%	97%	Activity [20]: 97%
N=C1NC(=O)/C(=C\c2ccc(-c3cccc([N+](=O)[O-])c3)o2)S1	93%	59%	83%	100%	101%	93%	99%	98%	108%	105%	96%	89%	96%	93%	98%	89%	95%	101%	98%	89%	Activity [20]: 94%
